Reference: ChEMBL document CHEMBL1671637, “Development, stability, and molecular mechanisms of macrolide resistance in Campylobacter jejuni” (2008)
Values after ≈ are worked out from the molar mass of the structure shown.

Legend:
[1] = test system: Campylobacter jejuni; assay: Antimicrobial activity against Campylobacter jejuni JL278 selected at 4 to 16 times MIC after 3 to 4 days by agar dilution method; type: functional
[2] = test system: Campylobacter jejuni; assay: Antimicrobial activity against Campylobacter jejuni JL279 selected at 4 to 16 times MIC after 3 to 4 days by agar dilution method; type: functional
[3] = test system: Campylobacter jejuni; assay: Antimicrobial activity against Campylobacter jejuni JL283 selected at 4 to 16 times MIC after 3 to 4 days by agar dilution method; type: functional
[4] = test system: Campylobacter jejuni; assay: Antimicrobial activity against Campylobacter jejuni JL284 selected at 4 to 16 times MIC after 3 to 4 days by agar dilution method; type: functional
[5] = test system: Campylobacter jejuni; assay: Antimicrobial activity against Campylobacter jejuni JL285 selected at 4 to 16 times MIC after 3 to 4 days by agar dilution method; type: functional
[6] = test system: Campylobacter jejuni; assay: Antimicrobial activity against Campylobacter jejuni JL286 selected at 4 to 16 times MIC after 3 to 4 days by agar dilution method; type: functional
[7] = test system: Campylobacter jejuni; assay: Antimicrobial activity against Campylobacter jejuni JL287 harboring 23S rRNA A2074C mutant selected at 4 to 16 times MIC after 3 to 4 days by agar dilution method; type: functional
[8] = test system: Campylobacter jejuni; assay: Antimicrobial activity against Campylobacter jejuni JL288 harboring 23S rRNA A2074C mutant selected at 4 to 16 times MIC after 3 to 4 days by agar dilution method; type: functional
[9] = test system: Campylobacter jejuni; assay: Antimicrobial activity against Campylobacter jejuni JL289 harboring 23S rRNA A2074C mutant selected at 4 to 16 times MIC after 3 to 4 days by agar dilution method; type: functional
[10] = test system: Campylobacter jejuni; assay: Antimicrobial activity against Campylobacter jejuni JL290 harboring protein L22 with insertion of amino acid TSH at position 98 selected at 8 ug/ml after 3 to 4 days by agar dilution method; type: functional
[11] = test system: Campylobacter jejuni; assay: Antimicrobial activity against Campylobacter jejuni JL291 harboring protein L22 with insertion of amino acid TSH at position 98 selected at 4 to 16 times MIC after 3 to 4 days by agar dilution method; type: functional
[12] = test system: Campylobacter jejuni; assay: Antimicrobial activity against Campylobacter jejuni JL292 selected at 4 to 16 times MIC after 3 to 4 days by agar dilution method; type: functional
[13] = test system: Campylobacter jejuni; assay: Antimicrobial activity against Campylobacter jejuni JL293 selected at 4 to 16 times MIC after 3 to 4 days by agar dilution method; type: functional
[14] = test system: Campylobacter jejuni; assay: Antimicrobial activity against Campylobacter jejuni JL294 selected at 4 to 16 times MIC after 3 to 4 days by agar dilution method; type: functional
[15] = test system: Campylobacter jejuni; assay: Antimicrobial activity against Campylobacter jejuni JL295 selected at 2 ug/ml after 3 to 4 days by agar dilution method; type: functional
[16] = test system: Campylobacter jejuni; assay: Antimicrobial activity against Campylobacter jejuni JL296 selected at 4 to 16 times MIC after 3 to 4 days by agar dilution method; type: functional
[17] = test system: Campylobacter jejuni; assay: Antimicrobial activity against Campylobacter jejuni JL297 selected at 4 to 16 times MIC after 3 to 4 days by agar dilution method; type: functional
[18] = test system: Campylobacter jejuni; assay: Antimicrobial activity against Campylobacter jejuni JL298 selected at 4 to 16 times MIC after 3 to 4 days by agar dilution method; type: functional
[19] = test system: Campylobacter jejuni; assay: Antimicrobial activity against Campylobacter jejuni JL299 harboring protein L22 with insertion of amino acid TSH at position 98 selected at 4 to 16 times MIC after 3 to 4 days by agar dilution method; type: functional
[20] = test system: Campylobacter jejuni; assay: Antimicrobial activity against Campylobacter jejuni JL300 harboring protein L22 with insertion of amino acid TSH at position 98 selected at 4 to 16 times MIC after 3 to 4 days by agar dilution method; type: functional
[21] = test system: Campylobacter jejuni; assay: Antimicrobial activity against Campylobacter jejuni JL301 harboring protein L22 with insertion of amino acid TSH at position 98 selected at 4 to 16 times MIC after 3 to 4 days by agar dilution method; type: functional
[22] = test system: Campylobacter jejuni; assay: Antimicrobial activity against Campylobacter jejuni JL302 harboring protein L22 with insertion of amino acid TSH at position 98 selected at 4 to 16 times MIC after 3 to 4 days by agar dilution method; type: functional
[23] = test system: Campylobacter jejuni; assay: Antimicrobial activity against Campylobacter jejuni JL303 harboring protein L22 with insertion of amino acid TSH at position 98 selected at 4 to 16 times MIC after 3 to 4 days by agar dilution method; type: functional
[24] = test system: Campylobacter jejuni; assay: Antimicrobial activity against Campylobacter jejuni JL304 harboring protein L22 with insertion of amino acid TSH at position 98 selected at 4 to 16 times MIC after 3 to 4 days by agar dilution method; type: functional
[25] = test system: Campylobacter jejuni; assay: Antimicrobial activity against Campylobacter jejuni JL305 harboring protein L22 with insertion of amino acid TSH at position 98 selected at 4 to 16 times MIC after 3 to 4 days by agar dilution method; type: functional
[26] = test system: Campylobacter jejuni; assay: Antimicrobial activity against Campylobacter jejuni JL306 harboring protein L22 with insertion of amino acid TSH at position 98 selected at 4 to 16 times MIC after 3 to 4 days by agar dilution method; type: functional
[27] = test system: Campylobacter jejuni; assay: Antimicrobial activity against Campylobacter jejuni JL307 harboring protein L22 with insertion of amino acid TSH at position 98 selected at 4 to 16 times MIC after 3 to 4 days by agar dilution method; type: functional
[28] = test system: Campylobacter jejuni; assay: Antimicrobial activity against Campylobacter jejuni JL308 harboring protein L22 with insertion of amino acid TSH at position 98 selected at 4 to 16 times MIC after 3 to 4 days by agar dilution method; type: functional
[29] = test system: Campylobacter jejuni; assay: Antimicrobial activity against Campylobacter jejuni harboring mutation in cmeB by agar dilution method relative to wild type Campylobacter jejuni; type: functional
[30] = test system: Campylobacter jejuni; assay: Antimicrobial activity against Campylobacter jejuni DC2 infected in 15 days old chicken by agar dilution method in presence of feed with tylosin; type: functional
[31] = test system: Campylobacter jejuni; assay: Antimicrobial activity against Campylobacter jejuni DC2 infected in 15 days old chicken by agar dilution method; type: functional
[32] = test system: Campylobacter jejuni; assay: Antimicrobial activity against Campylobacter jejuni DC2 infected in 3 days old chicken by agar dilution method; type: functional
[33] = test system: Campylobacter jejuni; assay: Antimicrobial activity against Campylobacter jejuni DC6 infected in 3 days old chicken by agar dilution method; type: functional
[34] = test system: Campylobacter jejuni; assay: Antimicrobial activity against Campylobacter jejuni DC26 infected in 15 days old chicken by agar dilution method in presence of food with tylosin; type: functional
[35] = test system: Campylobacter jejuni; assay: Antimicrobial activity against compound-resistant Campylobacter jejuni; type: functional
[36] = test system: Campylobacter jejuni; assay: Antimicrobial activity against tylosin pre-exposed compound-resistant Campylobacter jejuni; type: functional
[37] = test system: Campylobacter jejuni; assay: Antimicrobial activity against Campylobacter jejuni DC14 harboring protein L4 G57D mutant by agar dilution method
[38] = test system: Campylobacter jejuni; assay: Antimicrobial activity against Campylobacter jejuni DC17 harboring protein L4 G57D mutant by agar dilution method
[39] = test system: Campylobacter jejuni; assay: Antimicrobial activity against Campylobacter jejuni DC19 harboring protein L4 G57D mutant by agar dilution method

For `CC[C@H]1OC(=O)[C@H](C)[C@@H](O[C@H]2C[C@@](C)(OC)[C@@H](O)[C@H](C)O2)[C@H](C)[C@@H](O[C@@H]2O[C@H](C)C[C@H](N(C)C)[C@H]2O)[C@](C)(O)C[C@@H](C)C(=O)[C@H](C)[C@@H](O)[C@]1(C)O` [ERYTHROMYCIN], which MIC [1] is on record?
Its MIC is 8 µg/mL (≈ 10.9 µM).

And the MIC [2]?
Its MIC is 8 µg/mL (≈ 10.9 µM).

And the MIC [3]?
Its MIC is 64 µg/mL (≈ 87.2 µM).

And the MIC [4]?
The MIC was 128 µg/mL (≈ 174 µM).

What about the MIC [5] of the same compound?
Its MIC is 128 µg/mL (≈ 174 µM).

And the MIC [6]?
The MIC was 128 µg/mL (≈ 174 µM).

What about the MIC [7] of the same compound?
Its MIC is > 512 µg/mL.

What about the MIC [8] of the same compound?
Its MIC is > 512 µg/mL.

What about the MIC [9] of the same compound?
Its MIC is > 512 µg/mL.

And the MIC [10]?
Its MIC is 32 µg/mL (≈ 43.6 µM).

And the MIC [11]?
Its MIC is 32 µg/mL (≈ 43.6 µM).

What about the MIC [12] of the same compound?
Its MIC is 8 µg/mL (≈ 10.9 µM).

And the MIC [13]?
The MIC was 8 µg/mL (≈ 10.9 µM).

And the MIC [14]?
The MIC was 8 µg/mL (≈ 10.9 µM).

And the MIC [15]?
The MIC was 8 µg/mL (≈ 10.9 µM).

And the MIC [16]?
Its MIC is 8 µg/mL (≈ 10.9 µM).

What about the MIC [17] of the same compound?
Its MIC is 8 µg/mL (≈ 10.9 µM).

What about the MIC [18] of the same compound?
Its MIC is 8 µg/mL (≈ 10.9 µM).

What about the MIC [19] of the same compound?
The MIC was 64 µg/mL (≈ 87.2 µM).

And the MIC [20]?
Its MIC is 128 µg/mL (≈ 174 µM).

What about the MIC [21] of the same compound?
Its MIC is 512 µg/mL (≈ 698 µM).

What about the MIC [22] of the same compound?
The MIC was 512 µg/mL (≈ 698 µM).

What about the MIC [23] of the same compound?
Its MIC is 256 µg/mL (≈ 349 µM).

And the MIC [24]?
Its MIC is 256 µg/mL (≈ 349 µM).

What about the MIC [25] of the same compound?
Its MIC is 256 µg/mL (≈ 349 µM).

What about the MIC [26] of the same compound?
Its MIC is 64 µg/mL (≈ 87.2 µM).

What about the MIC [27] of the same compound?
Its MIC is 256 µg/mL (≈ 349 µM).

And the MIC [28]?
Its MIC is 64 µg/mL (≈ 87.2 µM).

What about the “fold change (FC)” value [29] of the same compound?
Its value is 8.

What about the MIC [30] of the same compound?
The MIC was 32 µg/mL.

And the MIC [31]?
Its MIC is 32 µg/mL (≈ 43.6 µM).

And the MIC [32]?
The MIC was 32 µg/mL (≈ 43.6 µM).

What about the MIC [33] of the same compound?
The MIC was > 512 µg/mL.

What about the MIC [34] of the same compound?
Its MIC is 64 µg/mL.

And the MIC [35]?
Its MIC is 8 µg/mL (≈ 10.9 µM).

And the MIC [36]?
The MIC was > 512 µg/mL.

And the MIC [37]?
The MIC was 32 µg/mL (≈ 43.6 µM).

What about the MIC [38] of the same compound?
The MIC was 8 µg/mL (≈ 10.9 µM).

And the MIC [39]?
Its MIC is 16 µg/mL (≈ 21.8 µM).
